According to ChEMBL document CHEMBL1141580, “Studies on the chemical constituents and anticancer activity of Saxifraga stolonifera (L) Meeb” (2008):
Activity calls are given as the source filed them. No cut-off for these calls is given here.

What was measured:
[1] = test system: BGC-823; assay: Growth inhibition of human BGC823 cells at 100 uM after 72 hrs by MTT assay relative to control; format: functional; settings: BGC-823, 72 h, read-out: GI
[2] = test system: BGC-823; assay: Growth inhibition of human BGC823 cells at 5 uM after 72 hrs by MTT assay relative to control; format: functional; settings: BGC-823, 72 h, read-out: GI
[3] = test system: BGC-823; assay: Growth inhibition of human BGC823 cells at 50 uM after 72 hrs by MTT assay relative to control; format: functional; settings: BGC-823, 72 h, read-out: GI
[4] = test system: BGC-823; assay: Growth inhibition of human BGC823 cells at 10 uM after 72 hrs by MTT assay relative to control; format: functional; settings: BGC-823, 72 h, read-out: GI
[5] = test system: BGC-823; assay: Induction of apoptosis in human BGC823 cells at 100 uM after 12 hrs by flow cytometry; format: functional
[6] = test system: BGC-823; assay: Induction of apoptosis in human BGC823 cells at 100 uM after 48 hrs by flow cytometry; format: functional
[7] = test system: BGC-823; assay: Induction of apoptotic bodies in human BGC823 cells at 50 uM after 48 hrs; format: functional, cell-based
[8] = test system: BGC-823; assay: Induction of apoptosis in human BGC823 cells assessed as increase in DNA fragmentation at 50 uM after 48 hrs; format: functional, cell-based
[9] = test system: BGC-823; assay: Induction of apoptosis in human BGC823 cells at 100 uM after 24 hrs by flow cytometry; format: functional
[10] = test system: BGC-823; assay: Induction of apoptosis in human BGC823 cells assessed as increase in DNA fragmentation at 100 uM after 48 hrs; format: functional, cell-based
[11] = test system: BGC-823; assay: Effect on cell morphology in human BGC823 cells assessed as chromosomal condensations at 50 uM; format: functional, cell-based
[12] = test system: BGC-823; assay: Induction of apoptosis in human BGC823 cells at 100 uM after 36 hrs by flow cytometry; format: functional
[13] = test system: BGC-823; assay: Induction of apoptosis in human BGC823 cells at 20 uM after 12 hrs by flow cytometry; format: functional
[14] = test system: BGC-823; assay: Induction of apoptosis in human BGC823 cells at 20 uM after 36 hrs by flow cytometry; format: functional
[15] = test system: BGC-823; assay: Induction of apoptosis in human BGC823 cells at 20 uM after 24 hrs by flow cytometry; format: functional
[16] = test system: BGC-823; assay: Induction of apoptosis in human BGC823 cells at 20 uM after 48 hrs by flow cytometry; format: functional

`CC[C@H](CC[C@@H](C)[C@H]1CC[C@H]2[C@@H]3CC=C4C[C@@H](O)CC[C@]4(C)[C@H]3CC[C@]12C)C(C)C` [BETA-SITOSTEROL] gave an inhibition of growth at 100 µM [1] of 20.4%, an inhibition of growth at 5 µM [2] of 0.4% and an inhibition of growth at 50 µM [3] of 15.6%. The inhibition of growth at 10 µM [4] was 8.8%.
`COc1c(O)cc2c(c1O)[C@@H]1O[C@H](CO)[C@@H](O)[C@H](O)[C@H]1OC2=O` [BERGENIN] showed an inhibition of growth at 100 µM [1] of 10.8%, an inhibition of growth at 5 µM [2] of -0.8% and an inhibition of growth at 50 µM [3] of 6.1%. The inhibition of growth at 10 µM [4] was 2.2%.
In the case of `O=C(O)c1cc(O)c(O)c(O)c1` [GALLIC ACID], the inhibition of growth at 100 µM [1] is reported as 22.5%, the inhibition of growth at 5 µM [2] is reported as 6.7% and the inhibition of growth at 50 µM [3] is reported as 16.7%. The inhibition of growth at 10 µM [4] was 10.2%.
`O=c1c(O[C@@H]2O[C@H](CO)C(O)[C@H](O)[C@H]2O)c(-c2ccc(O)c(O)c2)oc2cc(O)cc(O)c12` (single isomer, unassigned) [ISOQUERCETIN] was tested, and the inhibition of growth at 100 µM [1] was 12.1%, the inhibition of growth at 5 µM [2] was 1.5% and the inhibition of growth at 50 µM [3] was 9.2%. For the same compound, the inhibition of growth at 10 µM [4] was 8.4%.
`O=c1c(O)c(-c2ccc(O)c(O)c2)oc2cc(O)cc(O)c12` [QUERCETIN] was tested, and the inhibition of growth at 100 µM [1] was 39.3%, the Activity [5] was 5.02% and the Activity [6] was 10.23%. For the same compound, the Activity [7] was “Active”, the Activity [8] was “Active” and the Activity [9] was 11.82%. The inhibition of growth at 5 µM [2] was 7.5%, the inhibition of growth at 50 µM [3] was 22.4% and the Activity [10] was “Active”. For the same compound, the Activity [11] was “Active”, the Activity [12] was 10.19% and the inhibition of growth at 10 µM [4] was 11%.
`CCCCCCCCCCCCCCCCCCCCCCCCCCCCCCC` [HENTRIACONTANE] showed an inhibition of growth at 100 µM [1] of 10.1%, an inhibition of growth at 5 µM [2] of 4.5% and an inhibition of growth at 50 µM [3] of 7%. The inhibition of growth at 10 µM [4] was 3.9%.
With `C[C@@H]1O[C@@H](Oc2c(-c3ccc(O)c(O)c3)oc3cc(O)cc(O)c3c2=O)C(O)[C@H](O)C1O` (single isomer, unassigned) [QUERCITRIN] the inhibition of growth at 100 µM [1] was 10.6%, the inhibition of growth at 5 µM [2] was 0.2% and the inhibition of growth at 50 µM [3] was 5.2%. It also gave an inhibition of growth at 10 µM [4] of 3.8%.
With `CC[C@@]1(O)C(=O)OCc2c1cc1n(c2=O)Cc2cc3cc(O)ccc3nc2-1` [HYDROXYCAMPTOTHECIN] the Activity [13] was 3.72%, the Activity [14] was 13.2% and the Activity [15] was 4.78%. For the same compound, the Activity [16] was 6.47%.
`CCCCCCCCCCCCCCCCCCCCCCCCCCCCC` [NONACOSANE] was tested, and the inhibition of growth at 100 µM [1] was -6.6%, the inhibition of growth at 5 µM [2] was -0.9% and the inhibition of growth at 50 µM [3] was -5.6%. For the same compound, the inhibition of growth at 10 µM [4] was -5.2%.
